The target in one assay is JAK2 (Homo sapiens, UniProt O60674). As to the kind of experiment: Kinase-Lumi luminescent kinase assay; also in vitro kinase assay with recombinant JAK2 and STAT3, bead pull-down of recombinant protein, CETSA in AGS and HGC27 cells. The format is biochemical.
Another assay addresses SRC (Homo sapiens, UniProt P12931). As to the kind of experiment: Kinase-Lumi luminescent kinase assay; also in vitro kinase assay with recombinant SRC and STAT3, bead pull-down of recombinant protein, CETSA in AGS and HGC27 cells. Type of assay: biochemical.

Each structure is given as a SMILES string. Where a name gives a salt, the structure may show the parent alone.

Sequence of SRC (P12931 2-536): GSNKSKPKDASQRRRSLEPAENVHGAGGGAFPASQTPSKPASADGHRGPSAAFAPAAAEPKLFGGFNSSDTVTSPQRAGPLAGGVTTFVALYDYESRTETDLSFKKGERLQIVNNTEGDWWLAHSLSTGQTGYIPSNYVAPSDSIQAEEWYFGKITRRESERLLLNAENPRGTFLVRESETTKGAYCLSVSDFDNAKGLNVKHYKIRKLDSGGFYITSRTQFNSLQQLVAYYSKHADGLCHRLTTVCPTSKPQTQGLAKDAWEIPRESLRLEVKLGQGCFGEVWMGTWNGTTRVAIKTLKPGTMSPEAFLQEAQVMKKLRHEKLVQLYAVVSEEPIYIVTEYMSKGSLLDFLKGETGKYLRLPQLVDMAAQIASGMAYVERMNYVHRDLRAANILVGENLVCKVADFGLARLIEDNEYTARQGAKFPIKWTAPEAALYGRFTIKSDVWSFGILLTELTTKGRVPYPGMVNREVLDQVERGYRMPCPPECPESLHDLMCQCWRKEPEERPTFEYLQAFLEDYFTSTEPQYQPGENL
Sequence of JAK2 (O60674 whole entry): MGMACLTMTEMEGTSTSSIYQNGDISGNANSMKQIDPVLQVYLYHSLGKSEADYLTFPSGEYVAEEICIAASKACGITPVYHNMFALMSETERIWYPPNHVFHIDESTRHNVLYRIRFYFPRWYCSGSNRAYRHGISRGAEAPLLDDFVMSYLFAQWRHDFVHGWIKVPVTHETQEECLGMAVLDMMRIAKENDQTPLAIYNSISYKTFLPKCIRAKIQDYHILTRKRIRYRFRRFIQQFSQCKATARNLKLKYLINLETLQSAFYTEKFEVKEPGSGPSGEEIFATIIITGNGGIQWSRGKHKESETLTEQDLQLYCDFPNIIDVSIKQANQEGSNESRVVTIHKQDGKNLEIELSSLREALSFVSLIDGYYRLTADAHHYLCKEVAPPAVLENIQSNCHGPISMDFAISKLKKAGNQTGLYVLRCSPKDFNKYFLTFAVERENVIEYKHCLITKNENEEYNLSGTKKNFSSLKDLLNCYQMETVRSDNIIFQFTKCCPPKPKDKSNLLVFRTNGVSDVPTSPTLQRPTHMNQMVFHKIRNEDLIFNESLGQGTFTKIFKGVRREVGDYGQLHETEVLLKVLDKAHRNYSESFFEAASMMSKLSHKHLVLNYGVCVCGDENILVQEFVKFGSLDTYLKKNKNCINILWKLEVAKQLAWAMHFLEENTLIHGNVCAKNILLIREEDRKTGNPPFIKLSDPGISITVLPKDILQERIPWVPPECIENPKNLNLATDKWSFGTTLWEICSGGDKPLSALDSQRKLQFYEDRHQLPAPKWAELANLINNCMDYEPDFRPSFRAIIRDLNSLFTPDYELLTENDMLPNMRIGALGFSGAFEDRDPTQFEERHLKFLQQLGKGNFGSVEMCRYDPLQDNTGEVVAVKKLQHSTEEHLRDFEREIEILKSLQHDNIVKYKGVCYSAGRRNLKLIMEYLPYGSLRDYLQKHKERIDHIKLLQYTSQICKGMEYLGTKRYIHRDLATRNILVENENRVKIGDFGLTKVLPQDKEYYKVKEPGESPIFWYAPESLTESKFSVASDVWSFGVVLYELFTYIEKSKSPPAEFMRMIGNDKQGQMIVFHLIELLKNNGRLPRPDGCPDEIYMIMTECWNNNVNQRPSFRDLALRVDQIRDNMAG

In general, IC50 refers to the point on the concentration scale where inhibition reaches its midpoint. For the compound `Cc1ccc(Sc2ccccc2N2CCNCC2)c(C)c1` [vortioxetine hydrobromide], the results for the concentration for half-maximal inhibition (IC50) at JAK2 and at SRC were 8.53 µM and 6.5 µM, respectively.

The values are drawn from PMC10163056, “Vortioxetine hydrobromide inhibits the growth of gastric cancer cells in vivo and in vitro by targeting JAK2 and SRC” (Oncogenesis, 2023).
